Assays:
cruzain = cruzain (Trypanosoma cruzi, UniProt P25779); experiment: biochemical; details: for Cruzain 0’ Inhibition / Cruzain 10’ Inhibition: sheet "Screening results"
Method: (§1) Allison Doak and Prof. Brian Shoichet (University of California San Francisco, San Francisco, CA, USA) and Prof. Conor Caffrey (University of California San Diego, San Diego, CA, USA) generously provided recombinant cruzain and TbrCatL, respectively. In vitro activity of proteases cruzain and TbrCatL was assayed as previously described. Briefly, enzyme activity was measured by monitoring the cleavage of the fluorogenic substrate […] (Z-FR-AMC) at 25 °C. Fluorescence was monitored at 340/440 nm (excitation/emission) over 5–7 min in a Synergy2 Biotek plate reader. […] DMSO and 1 μM E-64 were employed as negative and positive controls, respectively, in all assays. Two conditions were employed for both enzymes: 10′ pre-incubation of the enzyme in the presence of the compound (10′ inc) and no pre-incubation (0′). Reported values correspond to the mean and standard error of the mean (SEM) and all analyses were performed using GraphPad Prism 6.0.
(§2) For the initial screening, compounds were assayed at 5 μM. […] IC50 curves were obtained from a non-linear fit of at least seven distinct compound concentrations, in triplicate. Reported IC50 values are the mean and SEM of two independent measurements.

TbrCatL = target: T1, TbrCatL (Trypanosoma brucei rhodesiense, UniProt Q95PM0); experiment: TbrCatL enzymatic inhibition assay (cleavage of fluorogenic substrate Z-FR-AMC); format: biochemical; details: for TbrCatL 0’ Inhibition / TbrCatL 10’ Inhibition: sheet "Screening results"
T1 construct: Conor Caffrey (University of California San Diego)
T1 sequence (Q95PM0 entry or part of it): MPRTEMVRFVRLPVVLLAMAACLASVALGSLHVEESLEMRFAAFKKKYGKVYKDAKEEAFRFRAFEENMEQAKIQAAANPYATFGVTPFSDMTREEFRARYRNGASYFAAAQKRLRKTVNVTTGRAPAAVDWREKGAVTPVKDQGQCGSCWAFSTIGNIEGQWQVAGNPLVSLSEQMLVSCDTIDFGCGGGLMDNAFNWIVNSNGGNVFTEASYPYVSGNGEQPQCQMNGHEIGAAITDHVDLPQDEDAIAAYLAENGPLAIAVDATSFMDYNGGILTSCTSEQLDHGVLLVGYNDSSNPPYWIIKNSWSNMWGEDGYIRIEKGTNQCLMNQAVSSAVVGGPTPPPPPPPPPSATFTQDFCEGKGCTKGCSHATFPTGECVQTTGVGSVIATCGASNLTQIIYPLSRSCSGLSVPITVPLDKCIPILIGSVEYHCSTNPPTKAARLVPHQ
Method: as §1, §2

[1] = 0’ (pre-incubation time), Pathogen Box screening results
[2] = 10’ (pre-incubation time), Pathogen Box screening results
[3] = 0’ (no pre-incubation), sheet Screening results
[4] = 10’ (pre-incubation), sheet Screening results
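Also: at 5 µM compound concentration.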

Chain of cruzain (P25779 123-337 limits assumed): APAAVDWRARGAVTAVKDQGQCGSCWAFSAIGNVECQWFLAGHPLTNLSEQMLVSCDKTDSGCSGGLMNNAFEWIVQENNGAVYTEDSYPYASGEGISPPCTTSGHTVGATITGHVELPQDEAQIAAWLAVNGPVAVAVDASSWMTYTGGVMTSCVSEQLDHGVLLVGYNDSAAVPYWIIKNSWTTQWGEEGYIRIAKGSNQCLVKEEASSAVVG

Row | Structure (SMILES) | Cruzain Inhibition 0’ (cruzain; [3]) | Cruzain Inhibition 10’ (cruzain; [4]) | TbrCatL Inhibition 0’ (TbrCatL; [3]) | TbrCatL Inhibition 10’ (TbrCatL; [4]) | Cruzain 0’ Inhibition (cruzain; 0’ (pre-incubation time)) | Cruzain 10’ Inhibition (cruzain; 10’ (pre-incubation time)) | TbrCatL 0’ Inhibition (TbrCatL; 0’ (pre-incubation time)) | TbrCatL 10’ Inhibition (TbrCatL; 10’ (pre-incubation time)) | other results
1 | CO/N=C(/C(=O)OC)c1ccccc1CO/N=C(/C)c1cccc(C(F)(F)F)c1 [MMV688754] |  |  |  |  |  |  |  |  | Cruzain Inhibition 0’ (cruzain; [1]): 0.9%; Cruzain Inhibition 10’ (cruzain; [2]): 3.5%; TbrCatL Inhibition 0’ (TbrCatL; [1]): -4%; TbrCatL Inhibition 10’ (TbrCatL; [2]): -1.2%
2 | CCc1nn(C)c(C(=O)NCc2ccc(Oc3ccc(C)cc3)cc2)c1Cl [MMV688934] | 15% | 7.4% | 18% | 14% |  |  |  |  | 
3 | Cc1cc(Nc2ccncc2)n2nc(C)c(-c3ccccc3Cl)c2n1 [MMV016136] | 4.7% | 4.5% | 3.2% | 6% |  |  |  |  | 
4 | Cc1ccc2c(c1C)NC(=O)C21NN=C(c2ccccc2)S1 (stereo not shown) [MMV019189] | -17% | -22% | -21% | 14% |  |  |  |  | 
5 | CC[C@H](CO)NCCN[C@H](CC)CO [MMV687801] | -4.5% | 0.4% | 7% | 0.4% |  |  |  |  | 
6 | CN1CCN(S(=O)(=O)c2ccc(-c3ccc4c(Nc5ncc(Cl)cn5)ccnc4c3)cc2)CC1 [MMV688283] | 30% | 31% | 24% | 18% |  |  |  |  | 
7 | C[C@H](C(N)=O)N1CCCC[C@H]1c1ccc(OCc2cccc(F)c2)cc1 [MMV676269] |  |  |  |  | 0.4% | 2% | -3% | -4.7% | 
8 | Cc1cccc(Cn2ccc(NC(=O)c3ccc4c(c3)OCO4)n2)c1 [MMV676386] | 8% | 2.6% | 2.8% | 1.8% |  |  |  |  | 
9 | c1ccc(Oc2ccc(-c3cncc(-c4ccc5[nH]ccc5c4)n3)cc2)cc1 [MMV688178] |  |  |  |  | -6% | -6% | -10% | -21% | 
10 | CC(C)C(Oc1cccc2ccccc12)C(=O)O (stereo not shown) [MMV676191] |  |  |  |  | 2.8% | 1.5% | -3% | 2% | 
11 | COc1cncc(-c2cncc(N3CCN(c4ccncc4)CC3)n2)c1 [MMV085071] |  |  |  |  | 3.8% | -19% | -0.1% | -10% | 
12 | c1cncc(NCc2ccc(-c3cc4ccncc4cc3OC3CCNCC3)s2)c1 [MMV023969] |  |  |  |  | 29% | 31% | 19% | 17% | 
13 | Nc1ncnc2c1c(-c1cnc3ccccc3c1)nn2CC1CCNCC1 [MMV688411] |  |  |  |  | -0.3% | 5.5% | 1.7% | 3.7% | 
14 | CS(=O)(=O)N1CCC(CCn2nc(Cc3cccc4ccccc34)c3c(N)ncnc32)CC1 [MMV688470] | 10% | 11% | 14% | 9% |  |  |  |  | 
15 | O=[N+]([O-])c1cn2c(n1)OC[C@@H](OCc1ccc(OC(F)(F)F)cc1)C2 [MMV688755] |  |  |  |  |  |  |  |  | Cruzain Inhibition 0’ (cruzain; [1]): 3%; Cruzain Inhibition 10’ (cruzain; [2]): 6.6%; TbrCatL Inhibition 0’ (TbrCatL; [1]): -0.5%; TbrCatL Inhibition 10’ (TbrCatL; [2]): 4%
16 | O=C1[C@@H](Oc2ccccc2)[C@@H](c2ccc(Cl)cc2)N1CCn1cnc2c(NCc3ccccc3)ncnc21 [MMV688352] |  |  |  |  | 0% | 23% | 5% | 12% | 
17 | CCOC(=O)NC(=O)c1ccsc1NC(=O)c1nc2ccccc2s1 [MMV090930] | -18% | 3% | 1.3% | 0.3% |  |  |  |  | 
18 | CCOc1ccc(OCC(=O)Nc2cc(C)cc(C)c2)cc1 [MMV676470] |  |  |  |  | 6% | 9% | -0.9% | 4% | 
19 | CCc1ccccc1-n1c(C)cn2c3c(=O)n(C(C(=O)OC)C(C)C)c(=O)n(C)c3nc12 (stereo not shown) [MMV688550] |  |  |  |  |  |  |  |  | Cruzain Inhibition 0’ (cruzain; [1]): -4.3%; Cruzain Inhibition 10’ (cruzain; [2]): 3.2%; TbrCatL Inhibition 0’ (TbrCatL; [1]): -16%; TbrCatL Inhibition 10’ (TbrCatL; [2]): 0.4%

From PMC9967275, “Screening the Pathogen Box to Discover and Characterize New Cruzain and TbrCatL Inhibitors” (Pathogens, 2023)
